Data: US11008572B2, “Methods and compositions for modulating splicing” (SKYHAWK THERAPEUTICS, INC., priority 2017, dated 2021)

system: A-673 cells; assay: Cell viability, crystal violet staining; assay type: cell-based; conditions: Homo sapiens, A673, cell viability, read-out: A-673 IC50 (nM) Cell viability
Method: To measure cell viability, cells were plated in 96-well plastic tissue culture plates at a density of 5×10^3 cells/well. Twenty-four hours after plating, cells were treated with various SMSMs. After 72 hours, the cell culture media were removed and plates were stained with […] of a solution containing 0.5% crystal violet and 25% methanol, rinsed with deionized water, dried overnight, and resuspended in […] citrate buffer (0.1 M sodium citrate in 50% ethanol) to assess plating efficiency. Intensity of crystal violet staining, assessed at 570 nm and quantified using a Vmax Kinetic Microplate Reader and Softmax software (Molecular Devices Corp., Menlo Park, Calif.), were directly proportional to cell number. Data were normalized to vehicle-treated cells and were presented as the mean±SE from representative experiments. SMSMs that are effective were determined for various cells lines.
A-673 cell viability […], splicing (IC50) and brain AUC/Plasma AUC of SMSMs were determined. As shown in the tables below SMSMs had high CNS exposure.

First: CN(c1ccc(-c2ccc(-n3cc(F)cn3)cc2O)nn1)[C@H]1C[C@]2(C)CC[C@](C)(C1)N2 [compound 175, 2-(6-(((1R,3s,5S)-1,5-dimethyl-8-azabicyclo[3.2.1]octan-3-yl)(methyl)amino)pyridazin-3-yl)-5-(4-fluoro-1H-pyrazol-1-yl)phenol]
Second: CN(c1ccc(-c2ccc(-n3cc(C#N)cn3)cc2O)nn1)[C@H]1C[C@]2(C)CC[C@](C)(C1)N2 [compound 200, 1-(4-(6-(((1R,3s,5S)-1,5-dimethyl-8-azabicyclo[3.2.1]octan-3-yl)(methyl)amino)pyridazin-3-yl)-3-hydroxyphenyl)-1H-pyrazole-4-carbonitrile]
The IC50 of the first is lower: 10 to 100 nM for the first, 101 to 250 nM for the second. The first is the more potent here.

First: CN(c1ccc(-c2ccc(-n3cnc(F)c3)cc2O)nn1)[C@H]1C[C@]2(C)CC[C@](C)(C1)N2 [compound 176, 2-(6-(((1R,3s,5S)-1,5-dimethyl-8-azabicyclo[3.2.1]octan-3-yl)(methyl)amino)pyridazin-3-yl)-5-(4-fluoro-1H-imidazol-1-yl)phenol]
Second: CN(c1ccc(-c2ccc(-n3cnc(C#N)c3)cc2O)nn1)[C@H]1C[C@]2(C)CC[C@](C)(C1)N2 [compound 196, 1-(4-(6-(((1R,3s,5S)-1,5-dimethyl-8-azabicyclo[3.2.1]octan-3-yl)(methyl)amino)pyridazin-3-yl)-3-hydroxyphenyl)-1H-imidazole-4-carbonitrile]
The IC50 of the first is lower: 10 to 100 nM for the first, 251 to 500 nM for the second. The first is the more potent here.

Compared with `Cc1cc(-c2ccc(N(C)[C@H]3C[C@]4(C)CC[C@](C)(C3)N4)nn2)c(O)cc1-c1ccn(C)c(=O)c1` [compound 178, 4-(4-(6-(((1R,3s,5S)-1,5-dimethyl-8-azabicyclo[3.2.1]octan-3-yl)(methyl)amino)pyridazin-3-yl)-5-hydroxy-2-methylphenyl)-1-methylpyridin-2(1H)-one], `CN(c1ccc(-c2cc(F)c(-c3ccn(CF)c(=O)c3)cc2O)nn1)[C@H]1C[C@]2(C)CC[C@](C)(C1)N2` [compound 193, 4-(4-(6-(((1R,3s,5S)-1,5-dimethyl-8-azabicyclo[3.2.1]octan-3-yl)(methyl)amino)pyridazin-3-yl)-2-fluoro-5-hydroxyphenyl)-1-(fluoromethyl)pyridin-2(1H)-one] is lower in IC50: 251 to 500 nM for the first, under 10 nM for the second.

First: CN(c1ccc(-c2ccc(-c3cnn(C(F)F)c3)cc2O)nn1)[C@H]1C[C@]2(C)CC[C@](C)(C1)N2 [compound 179, 5-(1-(difluoromethyl)-1H-pyrazol-4-yl)-2-(6-(((1R,3s,5S)-1,5-dimethyl-8-azabicyclo[3.2.1]octan-3-yl)(methyl)amino)pyridazin-3-yl)phenol]
Second: CN(c1ccc(-c2ccc(-c3ccnc(OC(F)F)c3)cc2O)nn1)[C@H]1C[C@]2(C)CC[C@](C)(C1)N2 [compound 185, 5-(2-(difluoromethoxy)pyridin-4-yl)-2-(6-(((1R,3s,5S)-1,5-dimethyl-8-azabicyclo[3.2.1]octan-3-yl)(methyl)amino)pyridazin-3-yl)phenol]
The IC50 of the first is lower: 10 to 100 nM for the first, 501 to 1000 nM for the second. The first is the more potent here.

First: CN(c1ccc(-c2ccc(-c3ncn(C)c(=O)n3)cc2O)nn1)[C@H]1C[C@]2(C)CC[C@](C)(C1)N2 [compound 181, 4-(4-(6-(((1R,3s,5S)-1,5-dimethyl-8-azabicyclo[3.2.1]octan-3-yl)(methyl)amino)pyridazin-3-yl)-3-hydroxyphenyl)-1-methyl-1,3,5-triazin-2(1H)-one]
Second: CN(c1ccc(-c2ccc(-c3cc(=O)n(C)cn3)cc2O)nn1)[C@H]1C[C@]2(C)CC[C@](C)(C1)N2 [compound 194, 6-(4-(6-(((1R,3s,5S)-1,5-dimethyl-8-azabicyclo[3.2.1]octan-3-yl)(methyl)amino)pyridazin-3-yl)-3-hydroxyphenyl)-3-methylpyrimidin-4(3H)-one]
The IC50 of the first is higher: 251 to 500 nM for the first, 10 to 100 nM for the second.

`CN(c1ccc(-c2ccc(-c3cc[nH]c(=O)c3)cc2O)nn1)[C@H]1C[C@]2(C)CC[C@](C)(C1)N2` [compound 183, 4-(4-(6-(((1R,3s,5S)-1,5-dimethyl-8-azabicyclo[3.2.1]octan-3-yl)(methyl)amino)pyridazin-3-yl)-3-hydroxyphenyl)pyridin-2(1H)-one] and `CN(c1ccc(-c2cc(F)c(-c3cc[nH]c(=O)c3)cc2O)nn1)[C@H]1C[C@]2(C)CC[C@](C)(C1)N2` [compound 184, 4-(4-(6-(((1R,3s,5S)-1,5-dimethyl-8-azabicyclo[3.2.1]octan-3-yl)(methyl)amino)pyridazin-3-yl)-2-fluoro-5-hydroxyphenyl)pyridin-2(1H)-one] fall in the same range of IC50: 10 to 100 nM for the first, 10 to 100 nM for the second.

`COc1cc(-c2ccc(-c3ccc(N(C)[C@H]4C[C@]5(C)CC[C@](C)(C4)N5)nn3)c(O)c2)cc(F)n1` [compound 189, 2-(6-(((1R,3s,5S)-1,5-dimethyl-8-azabicyclo[3.2.1]octan-3-yl)(methyl)amino)pyridazin-3-yl)-5-(2-fluoro-6-methoxypyridin-4-yl)phenol] and `[2H]C([2H])([2H])Oc1cc(-c2ccc(-c3ccc(N(C)[C@H]4C[C@]5(C)CC[C@](C)(C4)N5)nn3)c(O)c2)cc(F)n1` [compound 207, 2-(6-(((1R,3s,5S)-1,5-dimethyl-8-azabicyclo[3.2.1]octan-3-yl)(methyl)amino)pyridazin-3-yl)-5-(2-fluoro-6-(methoxy-d3)pyridin-4-yl)phenol] fall in the same range of IC50: 10 to 100 nM for the first, 10 to 100 nM for the second.

`CN(c1ccc(-c2ccc(-c3cc(O)nc(F)c3)cc2O)nn1)[C@H]1C[C@]2(C)CC[C@](C)(C1)N2` [compound 190, 4-(4-(6-(((1R,3s,5S)-1,5-dimethyl-8-azabicyclo[3.2.1]octan-3-yl)(methyl)amino)pyridazin-3-yl)-3-hydroxyphenyl)-6-fluoropyridin-2-ol] and `CN(c1ccc(-c2ccc(-c3cc(F)nc(F)c3)cc2O)nn1)[C@H]1C[C@]2(C)CC[C@](C)(C1)N2` [compound 204, 5-(2,6-difluoropyridin-4-yl)-2-(6-(((1R,3s,5S)-1,5-dimethyl-8-azabicyclo[3.2.1]octan-3-yl)(methyl)amino)pyridazin-3-yl)phenol] cannot be ordered by IC50: 101 to 250 nM for the first, 100 to 500 nM for the second.

Compared with `CN(c1ccc(-c2ccc(-c3cc(C#N)n(C)c3)cc2O)nn1)[C@H]1C[C@]2(C)CC[C@](C)(C1)N2` [compound 195, 4-(4-(6-(((1R,3s,5S)-1,5-dimethyl-8-azabicyclo[3.2.1]octan-3-yl)(methyl)amino)pyridazin-3-yl)-3-hydroxyphenyl)-1-methyl-1H-pyrrole-2-carbonitrile], `CN(c1ccc(-c2ccc(-c3ccnc(C#N)c3)cc2O)nn1)[C@H]1C[C@]2(C)CC[C@](C)(C1)N2` [compound 199] is lower in IC50: 501 to 1000 nM for the first, 10 to 100 nM for the second. The second is the more potent here.

First: CN(c1ccc(-c2cc(F)c(-n3cnc(C#N)c3)cc2O)nn1)[C@H]1C[C@]2(C)CC[C@](C)(C1)N2 [compound 197, 1-(4-(6-(((1R,3s,5S)-1,5-dimethyl-8-azabicyclo[3.2.1]octan-3-yl)(methyl)amino)pyridazin-3-yl)-2-fluoro-5-hydroxyphenyl)-1H-imidazole-4-carbonitrile]
Second: CN(c1ccc(-c2cc(F)c(-c3cc(=O)n(C)cn3)cc2O)nn1)[C@H]1C[C@]2(C)CC[C@](C)(C1)N2 [compound 198, 6-(4-(6-(((1R,3s,5S)-1,5-dimethyl-8-azabicyclo[3.2.1]octan-3-yl)(methyl)amino)pyridazin-3-yl)-2-fluoro-5-hydroxyphenyl)-3-methylpyrimidin-4(3H)-one]
The IC50 of the first is higher: over 1000 nM for the first, under 10 nM for the second. The second is the more potent here.

`CCN(c1ccc(-c2ccc(-c3cn[nH]c3)cc2O)nn1)[C@H]1C[C@]2(C)CC[C@](C)(C1)N2` [compound 201, 2-(6-(((1R,3s,5S)-1,5-dimethyl-8-azabicyclo[3.2.1]octan-3-yl)(ethyl)amino)pyridazin-3-yl)-5-(1H-pyrazol-4-yl)phenol] and `CCN(c1ccc(-c2cc(F)c(-c3cn[nH]c3)cc2O)nn1)[C@H]1C[C@]2(C)CC[C@](C)(C1)N2` [compound 202, 2-(6-(((1R,3s,5S)-1,5-dimethyl-8-azabicyclo[3.2.1]octan-3-yl)(ethyl)amino)pyridazin-3-yl)-4-fluoro-5-(1H-pyrazol-4-yl)phenol] fall in the same range of IC50: 10 to 100 nM for the first, 10 to 100 nM for the second.

First: CN(c1ccc(-c2ccc(-n3ccc(C#N)c3)cc2O)nn1)[C@H]1C[C@]2(C)CC[C@](C)(C1)N2 [compound 203, 1-(4-(6-(((1R,3s,5S)-1,5-dimethyl-8-azabicyclo[3.2.1]octan-3-yl)(methyl)amino)pyridazin-3-yl)-3-hydroxyphenyl)-1H-pyrrole-3-carbonitrile]
Second: [2H]C([2H])([2H])Oc1cc(-c2ccc(-c3ccc(N(C)[C@H]4C[C@]5(C)CC[C@](C)(C4)N5)nn3)c(O)c2)cnn1 [compound 205, 2-(6-(((1R,3s,5S)-1,5-dimethyl-8-azabicyclo[3.2.1]octan-3-yl)(methyl)amino)pyridazin-3-yl)-5-(6-(methoxy-d3)pyridazin-4-yl)phenol]
The IC50 of the first is higher: 10 to 100 nM for the first, under 10 nM for the second.

Compared with `[2H]C([2H])([2H])Oc1cc(-c2cc(O)c(-c3ccc(N(C)[C@H]4C[C@]5(C)CC[C@](C)(C4)N5)nn3)cc2F)cnn1` [compound 206, 2-(6-(((1R,3s,5S)-1,5-dimethyl-8-azabicyclo[3.2.1]octan-3-yl)(methyl)amino)pyridazin-3-yl)-4-fluoro-5-(6-(methoxy-d3)pyridazin-4-yl)phenol], `[2H]C([2H])([2H])Oc1cc(-c2cc(O)c(-c3ccc(N(C)[C@H]4C[C@]5(C)CC[C@](C)(C4)N5)nn3)cc2F)cc(F)n1` [compound 208, 2-(6-(((1R,3s,5S)-1,5-dimethyl-8-azabicyclo[3.2.1]octan-3-yl)(methyl)amino)pyridazin-3-yl)-4-fluoro-5-(2-fluoro-6-(methoxy-d3)pyridin-4-yl)phenol] is higher in IC50: under 10 nM for the first, over 1000 nM for the second.

same assay, conditions: Homo sapiens, A673, read-out: A-673 cell viability (IC50)

For `CN(c1ccc(-c2cc(F)c(-c3ccn(CF)c(=O)c3)cc2O)nn1)[C@H]1C[C@]2(C)CC[C@](C)(C1)N2` [compound 193, 4-(4-(6-(((1R,3s,5S)-1,5-dimethyl-8-azabicyclo[3.2.1]octan-3-yl)(methyl)amino)pyridazin-3-yl)-2-fluoro-5-hydroxyphenyl)-1-(fluoromethyl)pyridin-2(1H)-one], the IC50 was under 3 nM.
